ChEMBL document CHEMBL1143799, “Synthesis and primary cytotoxicity evaluation of new imidazo[2,1-b]thiazole derivatives” (2007)

Key:
Format in all cases: functional
[1] = system: MCF7; experiment: Cytotoxicity against human MCF7 cells assessed as growth at 100 uM after 48 hrs by SRB protein assay relative to control; settings: MCF7, 48 h, read-out: Activity
[2] = system: NCI-H460; experiment: Cytotoxicity against human […] cells assessed as growth at 100 uM after 48 hrs by SRB protein assay relative to control; settings: NCI-H460, 48 h, read-out: Activity
[3] = system: SF-268; experiment: Cytotoxicity against human SF268 cells assessed as growth at 100 uM after 48 hrs by SRB protein assay relative to control; settings: SF-268, 48 h, read-out: Activity
[4] = system: CCRF-CEM; experiment: Growth inhibition of human CCRF-CEM cells after 48 hrs by SRB protein assay; settings: for TGI: read-out: Log TGI (converted)
[5] = system: K562; experiment: Growth inhibition of human K562 cells after 48 hrs by SRB protein assay; settings: K562, 48 h; for TGI: read-out: Log TGI (converted)
[6] = system: HOP-62; experiment: Growth inhibition of human HOP62 cells after 48 hrs by SRB protein assay; settings: HOP-62, 48 h; for TGI: read-out: Log TGI (converted)
[7] = system: HOP-92; experiment: Growth inhibition of human HOP92 cells after 48 hrs by SRB protein assay; settings: HOP-92, 48 h; for TGI: read-out: Log TGI (converted)
[8] = system: NCI-H226; experiment: Growth inhibition of human NCI-H226 cells after 48 hrs by SRB protein assay; settings: NCI-H226, 48 h; for TGI: read-out: Log TGI (converted)
[9] = system: NCI-H322M; experiment: Growth inhibition of human NCI-H322M cells after 48 hrs by SRB protein assay; settings: for TGI: read-out: Log TGI (converted)
[10] = system: HCT-15; experiment: Growth inhibition of human HCT15 cells after 48 hrs by SRB protein assay; settings: HCT-15, 48 h; for TGI: read-out: Log TGI (converted)
[11] = system: SF-268; experiment: Growth inhibition of human SF268 cells after 48 hrs by SRB protein assay; settings: SF-268, 48 h; for TGI: read-out: Log TGI (converted)
[12] = system: SF-295; experiment: Growth inhibition of human SF295 cells after 48 hrs by SRB protein assay; settings: SF-295, 48 h; for TGI: read-out: Log TGI (converted)
[13] = system: SNB-19; experiment: Growth inhibition of human SNB19 cells after 48 hrs by SRB protein assay; settings: SNB-19, 48 h; for TGI: read-out: Log TGI (converted)
[14] = system: LOX IMVI; experiment: Growth inhibition of human LOX IMVI cells after 48 hrs by SRB protein assay; settings: for TGI: read-out: Log TGI (converted)
[15] = system: SK-MEL-28; experiment: Growth inhibition of human SK-MEL-28 cells after 48 hrs by SRB protein assay; settings: SK-MEL-28, 48 h; for TGI: read-out: Log TGI (converted)
[16] = Growth inhibition of human 786O cells after 48 hrs by SRB protein assay; settings: 786-0, 48 h; for TGI: read-out: Log TGI (converted)
[17] = system: TK-10; experiment: Growth inhibition of human TK10 cells after 48 hrs by SRB protein assay; settings: TK-10, 48 h; for TGI: read-out: Log TGI (converted)
[18] = system: NCI/ADR-RES; experiment: Growth inhibition of human NCI/ADR-RES cells after 48 hrs by SRB protein assay; settings: for TGI: read-out: Log TGI (converted)
[19] = system: OVCAR-4; experiment: Growth inhibition of human OVCAR4 cells after 48 hrs by SRB protein assay; settings: OVCAR-4, 48 h; for TGI: read-out: Log TGI (converted)
[20] = system: A498; experiment: Growth inhibition of human A498 cells after 48 hrs by SRB protein assay; settings: A498, 48 h; for TGI: read-out: Log TGI (converted)

`O=C(Cc1csc2nc(-c3ccc(Br)cc3)cn12)N/N=C/c1ccccc1O` gave a growth at 100 µM [1] of 7%, a growth at 100 µM [2] of 0% and a growth at 100 µM [3] of 50%. For the same molecule, the GI50 [4] was 1.82 µM, the TGI [4] was 8.32 µM and the GI50 [5] was 0.0372 µM. For the same molecule, the TGI [5] was 2.95 µM, the GI50 [6] was 3.89 µM and the TGI [6] was 14.8 µM. For the same molecule, the GI50 [7] was 2.09 µM, the TGI [7] was 14.5 µM and the GI50 [8] was 1.95 µM. It also gave a TGI [8] of 7.76 µM, a GI50 [9] of 2.14 µM and a TGI [9] of 10.7 µM. For the same molecule, the GI50 [10] was 0.955 µM, the TGI [10] was 17.4 µM and the GI50 [11] was > 100 µM. The TGI [11] was > 100 µM, the GI50 [12] was 2.75 µM and the TGI [12] was 9.33 µM. For the same molecule, the GI50 [13] was 6.76 µM, the TGI [13] was 25.1 µM and the GI50 [14] was 3.47 µM. For the same molecule, the TGI [14] was 12.9 µM, the GI50 [15] was 12 µM and the TGI [15] was 24 µM. It also gave a GI50 [16] of 4.68 µM, a TGI [16] of 17.8 µM and a GI50 [17] of 2.04 µM. It also gave a TGI [17] of 8.71 µM, a GI50 [18] of 2.51 µM and a TGI [18] of 6.76 µM.

With `COc1cccc(OC)c1/C=N/NC(=O)Cc1csc2nc(-c3ccc(Br)cc3)cn12` the growth at 100 µM [1] was 27%, the growth at 100 µM [2] was 15% and the growth at 100 µM [3] was 82%. For the same molecule, the GI50 [4] was 9.55 µM, the TGI [4] was > 100 µM and the GI50 [5] was 2.95 µM. It also gave a TGI [5] of 6.92 µM, a GI50 [6] of 13.2 µM and a TGI [6] of 30.2 µM. It also gave a GI50 [7] of 13.8 µM, a TGI [7] of 35.5 µM and a GI50 [9] of 14.8 µM. It also gave a TGI [9] of 61.7 µM, a GI50 [10] of 7.41 µM and a TGI [10] of 64.6 µM. For the same molecule, the GI50 [11] was > 100 µM, the TGI [11] was > 100 µM and the GI50 [12] was 12.3 µM. For the same molecule, the TGI [12] was 34.7 µM, the GI50 [13] was 31.6 µM and the TGI [13] was > 100 µM. For the same molecule, the GI50 [14] was 12.6 µM, the TGI [14] was 47.9 µM and the GI50 [15] was 41.7 µM. For the same molecule, the TGI [15] was > 100 µM, the GI50 [19] was 28.2 µM and the TGI [19] was > 100 µM. The GI50 [16] was 26.3 µM, the TGI [16] was > 100 µM and the GI50 [17] was 16.2 µM. It also gave a TGI [17] of 51.3 µM, a GI50 [18] of 12.9 µM and a TGI [18] of 35.5 µM.

Molecule `O=C(Cc1csc2nc(-c3ccc(Br)cc3)cn12)N/N=C/c1ccc(Cl)cc1Cl` has a growth at 100 µM [1] of 46%, a growth at 100 µM [2] of 24% and a growth at 100 µM [3] of 94%. For the same molecule, the GI50 [4] was 39.8 µM, the TGI [4] was > 100 µM and the GI50 [6] was 16.6 µM. For the same molecule, the TGI [6] was 34.7 µM, the GI50 [7] was 28.2 µM and the TGI [7] was > 100 µM. For the same molecule, the GI50 [8] was 31.6 µM, the TGI [8] was 91.2 µM and the GI50 [9] was 24.5 µM. For the same molecule, the TGI [9] was 69.2 µM, the GI50 [10] was 25.7 µM and the TGI [10] was 72.4 µM. The GI50 [11] was > 100 µM, the TGI [11] was > 100 µM and the GI50 [12] was 34.7 µM. For the same molecule, the TGI [12] was > 100 µM, the GI50 [13] was 95.5 µM and the TGI [13] was > 100 µM. For the same molecule, the GI50 [14] was 21.4 µM, the TGI [14] was 49 µM and the GI50 [15] was > 100 µM. The TGI [15] was > 100 µM, the GI50 [19] was 37.2 µM and the TGI [19] was > 100 µM. It also gave a GI50 [16] of 25.7 µM, a TGI [16] of 74.1 µM and a GI50 [20] of 29.5 µM. It also gave a TGI [20] of 63.1 µM, a GI50 [18] of 17.4 µM and a TGI [18] of 52.5 µM.

`O=C(Cc1csc2nc(-c3ccc(Br)cc3)cn12)N/N=C/c1ccccc1` showed a growth at 100 µM [1] of 57%, a growth at 100 µM [2] of 12% and a growth at 100 µM [3] of 65%. For the same molecule, the GI50 [4] was 17.4 µM, the TGI [4] was > 100 µM and the TGI [5] was 7.94 µM. The GI50 [6] was 15.1 µM, the TGI [6] was 39.8 µM and the GI50 [7] was 12.3 µM. It also gave a TGI [7] of 37.2 µM, a GI50 [9] of 19.1 µM and a TGI [9] of 93.3 µM. The GI50 [10] was 16.2 µM, the TGI [10] was > 100 µM and the GI50 [11] was > 100 µM. The TGI [11] was > 100 µM, the GI50 [12] was 12 µM and the TGI [12] was 37.2 µM. For the same molecule, the GI50 [13] was 43.7 µM, the TGI [13] was > 100 µM and the GI50 [14] was 12.3 µM. The TGI [14] was 91.2 µM, the GI50 [15] was > 100 µM and the TGI [15] was > 100 µM. For the same molecule, the GI50 [19] was 46.8 µM, the TGI [19] was > 100 µM and the GI50 [16] was 27.5 µM. The TGI [16] was > 100 µM, the GI50 [17] was 14.1 µM and the TGI [17] was 41.7 µM. It also gave a GI50 [18] of 13.5 µM and a TGI [18] of 67.6 µM.

`O=C(Cc1csc2nc(-c3ccc(Br)cc3)cn12)N/N=C/c1ccc(O)cc1` gave a growth at 100 µM [1] of 22%, a growth at 100 µM [2] of 11% and a growth at 100 µM [3] of 42%. For the same molecule, the GI50 [4] was 12.3 µM, the TGI [4] was 79.4 µM and the GI50 [5] was 1.82 µM. The TGI [5] was 7.08 µM, the GI50 [6] was 18.2 µM and the TGI [6] was 53.7 µM. It also gave a GI50 [7] of 19.1 µM, a TGI [7] of 69.2 µM and a GI50 [9] of 4.37 µM. For the same molecule, the TGI [9] was 34.7 µM, the GI50 [10] was 17.8 µM and the TGI [10] was 61.7 µM. For the same molecule, the GI50 [11] was > 100 µM, the TGI [11] was > 100 µM and the GI50 [12] was 12 µM. The TGI [12] was 41.7 µM, the GI50 [13] was 57.5 µM and the TGI [13] was > 100 µM. It also gave a GI50 [14] of 11.2 µM, a TGI [14] of 26.3 µM and a GI50 [15] of 60.3 µM. For the same molecule, the TGI [15] was 100 µM, the GI50 [19] was > 100 µM and the TGI [19] was > 100 µM. It also gave a GI50 [16] of 26.3 µM, a TGI [16] of 89.1 µM and a GI50 [17] of 9.77 µM. The TGI [17] was 33.1 µM, the GI50 [18] was 21.4 µM and the TGI [18] was 61.7 µM.

`Nc1nc2[nH]cnc2c(=S)[nH]1` [THIOGUANINE] gave a GI50 [4] of 0.155 µM, a TGI [4] of 25.7 µM and a GI50 [5] of 0.407 µM. For the same molecule, the TGI [5] was 70.8 µM, the GI50 [6] was 0.741 µM and the TGI [6] was 28.8 µM. The GI50 [7] was 0.741 µM, the TGI [7] was 24 µM and the GI50 [8] was 4.07 µM. It also gave a TGI [8] of 97.7 µM, a GI50 [9] of 7.41 µM and a TGI [9] of 224 µM. The GI50 [10] was 1.1 µM, the TGI [10] was 51.3 µM and the GI50 [11] was 1.15 µM. The TGI [11] was 158 µM, the GI50 [12] was 1.02 µM and the TGI [12] was 158 µM. The GI50 [13] was 79.4 µM, the TGI [13] was 245 µM and the GI50 [14] was 0.209 µM. The TGI [14] was 9.12 µM, the GI50 [15] was 8.91 µM and the TGI [15] was 155 µM. It also gave a GI50 [19] of 1.51 µM, a TGI [19] of 100 µM and a GI50 [16] of 0.832 µM. The TGI [16] was 107 µM, the GI50 [20] was 6.76 µM and the TGI [20] was 95.5 µM. It also gave a GI50 [17] of 1.05 µM and a TGI [17] of 79.4 µM.
